We go through 23 compounds from PubChem BioAssay (NCI).

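Growth conditions: 96-well plates. Treatment: test compound, 48 hours, 5 concentrations. Analysis: linear interpolation between bracketing concentrations; unreached endpoints set to highest concentration. TGI marks complete inhibition of growth.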

What all share (test): growth of human tumour cells (NCI), 48 h
In assay [1] the test system is COLO 205 colon.
Assay [2] relates to A498 renal.
The subject of assay [3] is UACC-62 melanoma.
Assay [4] relates to MOLT-4 leukemia.
In assay [5] the test system is EKVX NSCLC.
In assay [6] the test system is SNB-75 CNS.
Assay [7] relates to NCI-H522 lung.
For assay [8], the system named is K-562 leukemia.
Assay [9] concerns 786-0 renal.
For assay [10], the system named is MCF7 breast.
The subject of assay [11] is HCC-2998 colon.
The test system of assay [12] is IGROV1 ovarian.

In the case of `N#CC(NNC(=O)c1ccccc1O)c1c(O)ccc2ccccc12` (configuration not stated), the TGI in assay [1] is 23.6 µM; in assay [2], greater than 66 µM; in assay [3], 9.32 µM; in [4] it was 37.8 µM; in [5] it was 51.7 µM; in assay [6], 48.3 µM. Also, the TGI in assay [7] is 18.7 µM; in assay [8] it was greater than 66.3 µM; in assay [9], 58.8 µM; in [10], 53.6 µM; in assay [11], greater than 100 µM; in assay [12], 33.9 µM.
For the compound `NC(N)=NCCCC(NC(=O)c1c2ccccc2nc2ccccc12)C(=O)O` (configuration not stated), the TGI in [1], in [2], in assay [3], in assay [4], in assay [5] and in assay [6] was greater than 100 µM each time. Moreover, the TGI in assay [7], in assay [8], in assay [9], in assay [10], in [11] and in assay [12] was greater than 100 µM throughout.
Take `COc1ccc(CC[N+]2(C)COc3cc4oc(=O)cc(C)c4cc3C2)cc1OC` (configuration not stated): the TGI is greater than 100 µM in assay [1]; greater than 100 µM in [2]; greater than 100 µM in assay [3]; 18 µM in [4]; greater than 100 µM in assay [5]; greater than 100 µM in [6]. Further, the TGI in [7], in assay [8], in [9], in [10], in assay [11] and in [12] was greater than 100 µM each time.
In the case of `Cc1cc2occ(S(=O)(=O)NC(=O)Nc3ccc(Cl)cc3)c(=O)c2c(=O)o1`, the TGI in assay [1], in assay [2], in assay [3], in assay [4], in assay [5] and in [6] was greater than 100 µM throughout. The TGI in assay [7], in assay [8], in [9], in assay [10], in [11] and in assay [12] was greater than 100 µM throughout.
With `O=C(O)CCC1NC(/C(=C/c2ccccc2O)NC(=O)c2ccccc2)OC1=O` (configuration not stated), the TGI in assay [1] was greater than 100 µM; in [2], greater than 100 µM; in assay [3], greater than 100 µM; in assay [4], greater than 100 µM; in assay [5], greater than 100 µM; in assay [6], 72.4 µM. Moreover, the TGI in assay [7], in [8], in [9], in assay [10], in [11] and in assay [12] was greater than 100 µM throughout.
With `COc1cc(/C=C2/Oc3c(OC)cccc3C2=O)ccc1O`, the TGI in [1], in [2], in assay [3], in assay [4], in [5] and in [6] was greater than 100 µM in each case. For the same compound, the TGI in [7], in assay [8], in [9], in [10], in [11] and in assay [12] was greater than 100 µM throughout.
With `CC(C)[C@@H]1NC(=O)[C@@H]2N=C(O[C@H]2C)[C@H](C(C)C)NC(=O)C2N=C1O[C@H]2C`, the TGI in assay [1], in assay [2], in assay [3], in assay [4], in assay [5] and in assay [6] was greater than 100 µM each time. Moreover, the TGI in [7], in assay [8], in assay [9], in assay [10], in [11] and in assay [12] was greater than 100 µM in each case.
As for `C[n+]1c(-c2ccc(/C=N/NC(=O)C(=O)N/N=C/c3ccc(-c4cn5ccccc5[n+]4C)cc3)cc2)cn2ccccc21`, the TGI in assay [1], in assay [2], in assay [3], in [4], in [5] and in [6] was greater than 100 µM each time. Further, the TGI in assay [7], in assay [8], in assay [9], in [10], in assay [11] and in [12] was greater than 100 µM each time.
As to `CC(NNC(=O)c1ccncc1)c1ccc(Cl)cc1Cl` (configuration not stated), the TGI in assay [1], in [2], in assay [3], in assay [4], in [5] and in assay [6] was greater than 100 µM in each case. Moreover, the TGI in assay [7], in assay [8], in assay [9], in assay [10], in assay [11] and in assay [12] was greater than 100 µM each time.
With `O=C1C2CC[C@@H]3C(=O)C(Cl)(Cl)[C@@H]3CCC2C1(Cl)Cl` (some centres not stated), the TGI in assay [1] was greater than 100 µM; in assay [2], greater than 100 µM; in [3], greater than 100 µM; in assay [4], 74.7 µM; in assay [5] it was greater than 100 µM; in [6], greater than 100 µM. In addition, the TGI in assay [7] was greater than 100 µM; in [8], greater than 100 µM; in [9], greater than 100 µM; in assay [10], greater than 91.1 µM; in assay [11], greater than 100 µM; in [12], greater than 100 µM.
On to `CCc1cc2c(c3c1CCCC3=O)CC1(C2)Cc2cc(CC)c3c(c2C1)C(=O)CCC3`, for which the TGI in assay [1], in assay [2], in assay [4], in assay [5], in assay [6] and in assay [7] was greater than 100 µM in each case. Further, the TGI in assay [8], in assay [9], in assay [10], in assay [11] and in [12] was greater than 100 µM throughout.
For the compound `COc1ccc(N=Nc2c(N)nn3c(SC)c(C#N)c(N)nc23)cc1`, the TGI in [1] was 26.4 µM; in assay [2] it was 28.5 µM; in assay [3], 20.4 µM; in assay [4], 7.53 µM; in [5], 21.3 µM; in assay [6], 40.6 µM. Moreover, the TGI in assay [7] was 36.8 µM; in [8], 4.65 µM; in assay [9], 14.2 µM; in assay [10], 7.97 µM; in [11], 16.7 µM; in assay [12] it was 4.19 µM.
With `CC(C)(CN1CCCCC1)C(=O)CC(SCCS(=O)(=O)O)c1ccc(Cl)cc1` (configuration not stated), the TGI in [1] amounted to 8.94 µM; in assay [2] it was 13.5 µM; in [3], 13.6 µM; in assay [4], 6.63 µM; in assay [5], 11.8 µM; in assay [6] it was 15.1 µM. The TGI in assay [7] was found to be 6.29 µM; in assay [8], 9.91 µM; in [9], 8.91 µM; in assay [10], 11.8 µM; in assay [11], 26 µM; in [12], 20.4 µM.
For `Cc1cc(=O)n2nc(CSc3nnc(Sc4cc(O)ccc4O)s3)sc2n1`, the TGI is greater than 100 µM in [1]; greater than 100 µM in assay [2]; greater than 100 µM in [3]; 59.5 µM in assay [4]; greater than 100 µM in [5]; greater than 100 µM in assay [6]. The TGI is 46.2 µM in [7]; 41.1 µM in assay [8]; greater than 100 µM in assay [9]; 30.9 µM in assay [10]; greater than 100 µM in [11]; greater than 100 µM in assay [12].
For `CCOC(=O)C1CCC(=O)N1C(=O)c1ccc(Cl)cc1` (configuration not stated), the TGI in [2], in [3], in assay [4], in [5], in assay [6] and in [7] was greater than 100 µM in each case. The TGI in [8], in assay [9], in [10], in [11] and in assay [12] was greater than 100 µM in each case.
As to `CC(CC=O)Nc1nn2c(=O)c3ccccc3nc2s1` (configuration not stated), the TGI in assay [1], in assay [2], in assay [3], in assay [4], in assay [5] and in assay [6] was greater than 100 µM in each case. For the same compound, the TGI in assay [7], in assay [8], in [9], in assay [10], in assay [11] and in assay [12] was greater than 100 µM throughout.
For `COc1ccc(C23OCC(Cc4cc(OC)c(OC)cc42)C3CO)cc1OC` (configuration not stated), the TGI in assay [1], in assay [2], in assay [3], in [4], in assay [5] and in [6] was greater than 100 µM in each case. The TGI in assay [7], in assay [8], in [9], in assay [10] and in [11] was greater than 100 µM throughout.
For `O=C1C=C/C(=C/[C@H]2SSC=C[C@]23C=CC(=O)C3)C1`, the TGI in [1] is 53 µM; in [2] it was 38.3 µM; in assay [3], 58.7 µM; in assay [4] it was 7.16 µM; in [5], 63.6 µM; in [6], greater than 100 µM. In addition, the TGI was 27.7 µM in assay [7]; greater than 100 µM in assay [8]; 28.7 µM in [9]; greater than 100 µM in [10]; 44.7 µM in assay [11]; 48 µM in [12].
For the compound `Cc1cc2c(cc1Cl)Sc1n[nH]c(=O)n1S2(=O)=O`, the TGI in [1] is greater than 100 µM; in [2], 90.8 µM; in assay [3] it was greater than 100 µM; in assay [4], greater than 100 µM; in assay [5] it was greater than 100 µM; in [6], greater than 100 µM. Moreover, the TGI in assay [7], in [8], in [9], in [10], in assay [11] and in assay [12] was greater than 100 µM throughout.
On to `CC(C)=CCc1c2c(c(O)c3c(=O)c4c(oc13)-c1ccc(O)cc1OC4C=C(C)C)C=CC(C)(C)O2` (configuration not stated), for which the TGI in [1] amounted to 37.1 µM; in assay [2], 34.9 µM; in assay [3], 27.4 µM; in assay [4], 22.7 µM; in [5] it was 30.3 µM; in assay [6], 25.3 µM. Moreover, the TGI was determined as 26.9 µM in assay [7]; 25.9 µM in assay [8]; 23.9 µM in assay [9]; 28.9 µM in assay [10]; 11 µM in assay [11]; 27.8 µM in assay [12].
As for `CCC1CN2CCc3c([nH]c4ccccc34)[C@@](C(=O)OC)(c3cc4c(cc3OC)N(C)C3C(O)(C(=O)OC)C(C(=O)OC)C5(CC)C=CCN6CCC43C65)C[C@@H](C2)[C@@H]1C(C)(C)C` (some centres not stated), the TGI in [1] is greater than 6.1 µM; in assay [2], 1.12 µM; in assay [3], greater than 10 µM; in assay [4], 8.12 µM; in assay [5], greater than 10 µM; in assay [6], greater than 10 µM. For the same compound, the TGI in assay [7] was 3.56 µM; in assay [8] it was 9.73 µM; in assay [9] it was 7.16 µM; in [10], greater than 10 µM; in [11], 1.52 µM; in assay [12], greater than 10 µM.
For the compound `CN(/N=C\c1ccc2ccccc2c1)C1=NCCCN1`, the TGI amounted to 25.3 µM in [1]; 28.8 µM in [2]; 34.5 µM in [3]; 8.93 µM in [4]; 53.8 µM in [5]; 91.2 µM in assay [6]. Besides, the TGI worked out at 30.3 µM in [7]; 34.2 µM in assay [8]; 29.1 µM in [9]; 26.4 µM in [10]; 27.2 µM in assay [11]; 23.3 µM in [12].
For `O=C(NCc1ccccc1Cl)c1c(O)c2ccccc2[nH]c1=O`, the TGI in assay [1] is greater than 100 µM; in assay [2], 30.4 µM; in assay [4] it was greater than 100 µM; in assay [5] it was greater than 100 µM; in assay [6] it was 52.2 µM; in assay [7] it was greater than 100 µM. Besides, the TGI in assay [8] is greater than 100 µM; in assay [9], 36.5 µM; in assay [10], greater than 100 µM; in assay [11] it was greater than 100 µM; in assay [12], 67.2 µM.
